Where two headings read alike, the source gives them in different places.
Tests used:
black medic = assay: Greenhouse black medic and turf test, iron chelates with Sylgard 309 (Example 2): black medic damage; assay type: in vivo; settings: sprayed twice at 200 ml/m^2, 7 days after first spraying, visual rating 0-100%
Description: (§1) The following non-limiting examples serve to further describe the invention. Unless otherwise specified, all of the iron solutions were made using the same molar concentration of iron ion as chelating agent. Samples were prepared by diluting a metal chelate, such as iron GLDA (Dissolvine GL-Fe-5), iron EDDS (Enviomet C320), or iron HEDTA (Neu 1173H), to the desired level of iron as specified using simple stirring. Neu 1173H contains the stabilizer sodium citrate at 1.5% prior to dilution. Dilutions of Neu1173H to the level of 0.25% Fe, incorporates 0.08% sodium citrate into the spray solutions. Adjuvants (Sylgard® 309, Biosoft®D-40, Tween® 20), were then diluted and added to the diluted metal chelate. Samples were usually prepared within 48 hours of spraying. All of the outside tests were done on areas of mixed grass and white clover that were at least 2 months old. For the greenhouse tests, white clover and black medic were grown in a commercial greenhouse mix using supplemental lighting and heating. Each plant was grown in a 2¼ inch pot to a minimum diameter of 15-20 cm. Perennial ryegrass was grown in 2¼ inch pots in the same greenhouse conditions as above and they are at least 4 weeks old at the time of application. […]
(§2) All plant damage was visually assessed using a percentage rating scale from 0 (no injury) to 100% (death). […]

white clover [1] = assay: Greenhouse white clover and turf test, iron chelates with Sylgard 309 (Example 1): white clover damage; assay type: in vivo, white clover (Trifolium repens); settings: sprayed twice at 200 ml/m^2, 7 days after second spraying, visual rating 0-100%
Description: as §1, §2

perennial ryegrass [2] = assay type: in vivo; settings: greenhouse, sprayed twice at 200 ml/m^2, one day after first spraying, visual rating 0-100%
Description: as §1, §2

white clover [3] = assay: Greenhouse white clover and turf test, iron chelates with Bio-Soft D-40 (Example 3): white clover damage; assay type: in vivo, white clover (Trifolium repens); settings: sprayed twice at 200 ml/m^2, one day after first spraying, visual rating 0-100%
Description: as §1, §2

park lawn [4] = assay: Field white clover and turf test, iron chelates with Bio-Soft D-40 (Example 4): grass damage; assay type: in vivo; settings: sprayed twice at 200 ml/m^2, 14 days after second spraying, visual rating 0-100%
Description: as §1, §2

English daisy [5] = assay: Field English daisy and turf test, iron chelates with Sylgard 309 (Example 8): English daisy damage; assay type: in vivo, English daisy (Bellis perennis); settings: sprayed twice at 200 ml/m^2, 5 days after first spraying, visual rating 0-100%
Description: as §1, §2

perennial ryegrass [6] = assay: Greenhouse black medic and turf test, iron chelates with Sylgard 309 (Example 2): grass damage; assay type: in vivo; settings: sprayed twice at 200 ml/m^2, 7 days after first spraying, visual rating 0-100%
Description: as §1, §2

white clover [7] = assay: Field white clover and turf test, iron chelates with Bio-Soft D-40 (Example 4): white clover damage; assay type: in vivo, white clover (Trifolium repens); settings: sprayed twice at 200 ml/m^2, 14 days after second spraying, visual rating 0-100%
Description: as §1, §2

perennial ryegrass [8] = assay: Greenhouse white clover and turf test, iron chelates with Tween 20 (Example 5): grass damage; assay type: in vivo; settings: sprayed twice at 200 ml/m^2, one day after first spraying, visual rating 0-100%
Description: as §1, §2

park lawn [9] = assay: Field English daisy and turf test, iron chelates with Sylgard 309 (Example 8): grass damage; assay type: in vivo; settings: sprayed twice at 200 ml/m^2, 5 days after first spraying, visual rating 0-100%
Description: as §1, §2

white clover [10] = assay: Greenhouse white clover and turf test, iron chelates with Tween 20 (Example 5): white clover damage; assay type: in vivo, white clover (Trifolium repens); settings: sprayed twice at 200 ml/m^2, one day after first spraying, visual rating 0-100%
Description: as §1, §2

perennial ryegrass [11] = assay: Greenhouse white clover and turf test, iron chelates with Sylgard 309 (Example 1): grass damage; assay type: in vivo; settings: sprayed twice at 200 ml/m^2, 7 days after second spraying, visual rating 0 (no injury) to 100% (death)
Description: as §1, §2

dandelion = assay: Greenhouse dandelion and turf test, iron chelates with Sylgard 309 (Example 7): dandelion damage; assay type: in vivo, dandelion (Taraxacum officinale); settings: sprayed twice at 200 ml/m^2, 7 days after first spraying, visual rating 0-100%
Description: as §1, §2

perennial ryegrass [12] = assay: Greenhouse dandelion and turf test, iron chelates with Sylgard 309 (Example 7): grass damage; assay type: in vivo; settings: sprayed twice at 200 ml/m^2, 7 days after first spraying, visual rating 0-100%
Description: as §1, §2

perennial ryegrass [13] = assay: Greenhouse white clover and turf test, iron chelates with Sylgard 309 (Example 6): grass damage; assay type: in vivo; settings: sprayed twice at 200 ml/m^2, 14 days after second spraying, visual rating 0-100%
Description: as §1, §2

park lawn [14] = assay: Field English daisy and turf test, iron chelates with Sylgard 309 and Bio-Soft D-40 (Example 9): grass damage; assay type: in vivo; settings: sprayed twice at 100 ml/m^2, 7 days after first spraying, visual rating 0-100%
Description: as §1, §2

white clover [15] = assay: Greenhouse white clover and turf test, iron chelates with Sylgard 309 (Example 6): white clover damage; assay type: in vivo, white clover (Trifolium repens); settings: sprayed twice at 200 ml/m^2, 14 days after second spraying, visual rating 0-100%
Description: as §1, §2

English daisy [16] = assay: Field English daisy and turf test, iron chelates with Sylgard 309 and Bio-Soft D-40 (Example 9): English daisy damage; assay type: in vivo, English daisy (Bellis perennis); settings: sprayed twice at 100 ml/m^2, 7 days after first spraying, visual rating 0-100%
Description: as §1, §2

Substance | Black Medic Damage (%) (black medic) | White Clover Damage (%) (white clover [1]) | Grass Damage (%) (perennial ryegrass [2]) | White Clover Damage (%) (white clover [3]) | Grass Damage (%) (park lawn [4]) | English daisy Damage (%) (English daisy [5]) | Grass Damage (%) (perennial ryegrass [6]) | White Clover Damage (%) (white clover [7]) | Grass Damage (%) (perennial ryegrass [8]) | Grass Damage (%) (park lawn [9]) | White Clover Damage (%) (white clover [10]) | Grass Damage (%) (perennial ryegrass [11]) | Dandelion Damage (%) (dandelion) | Grass Damage (%) (perennial ryegrass [12]) | Grass Damage (%) (perennial ryegrass [13]) | Grass Damage (%) (park lawn [14]) | White Clover Damage (%) (white clover [15]) | English daisy Damage (%) (English daisy [16])
iron ethylenediaminedisuccinate [FeEDDS 2.49% a.i. (0.4% Fe)] | 28% | 27% | 1% | 15% | 1% | 39% | 2% | 38% | 0% | 4% | 18% | 3% |  |  |  |  |  | 
iron glutamicaciddiacetic acid [FeGLDA 2.28% a.i. (0.4% Fe)] |  | 7% | 0% | 8% |  |  |  |  |  |  |  | 8% | 38% | 6% |  |  |  | 
iron hydroxyethylenediaminetriacetic acid [FeHEDTA 1.5% a.i (0.25% Fe)] | 54% |  |  |  |  |  | 3% |  |  |  |  |  |  |  | 2% | 2% | 46% | 81%

Source: patent US8987171B2, “Selective herbicides with activator adjuvants” (W. Neudorff GmbH KG, priority 2010, dated 2015)
